Here are results for 1 compound from US11925643B2, “Toll-like receptor 4 (TLR4) inhibitors and use thereof” (MOR RESEARCH APPLICATIONS LTD., priority 2018, dated 2024).

Entries after “also recorded” stand apart in the source; their conditions may differ.

What all share (format): in vivo
In data set [1] the test system is C57BL mice. As to the kind of experiment: Serum markers CK, LDH, troponin and GOT after LAD ligation. The protocol:
(§1) Male wild type mice (C57BL) were purchased from Harlan™ (Jerusalem, Israel). Mice were grown in a temperature-controlled atmosphere, 12/12 hours light/dark cycle and given standard food and tap water. The experiments were performed on 2-3-month-old male mice. All experiments were carried out in accordance with the guidelines of the Animal Care and Use Committee of Tel Aviv University with the Guide for the Care and Use of Laboratory Animals published by the US National Institutes of Health.
(§2) Mice were anesthetized (with a mixture of 100 mg/kg ketamine and 10 mg/kg xylazine), intubated and ventilated with air until spontaneous breathing commenced. The left anterior descending artery (LAD) was ligated with one single stitch, forming an ischemia that can be observed almost immediately. By closing the LAD, no further blood flow is permitted in that area, while the surrounding myocardial tissue is almost not affected. This surgical procedure imitates the pathobiological and pathophysiological aspects occurring in infarction-related myocardial ischemia.
Blood was drawn out from the mice and immediately centrifuged at […] for 10 minutes to isolate the serum, which was obtained from the top portion of the test tube. The serum was mixed with double distilled water (DDW) in a ratio of 1:10 and was ready for assaying. Various markers were observed (CK, LDH & troponin) to determine cardiac damage in the serum.
A dose response experiment was conducted using the experiment design of the pilot experiment. PM6 was given to mice in three doses: 0.05, 0.30 and 1.00 mg/kg. Blood levels of four serum markers were assessed. The levels of three markers CK, LDH and troponin were correlated with MI severity. Troponin is a complex of three regulatory proteins that is integral to muscle contraction in skeletal muscle and cardiac muscle, and serves as a highly specific marker for myocardial infarction or heart muscle cell death. The level of the fourth marker GOT was used as an indicator for liver functions.

In data set [2] the test system is C57BL mice. As to the kind of experiment: Survival after ischemia induction (MI mice model). Particulars: 0.3 mg/kg 1 hour after ischemia induction; 7 days; 12 mice. How it is done:
as §2
Real time reverse transcriptase PCR (RT-qPCR) was conducted to identify the effect of a disclosed decoy peptide on TLR-mediated induction of the inflammatory cytokine TNF-α. The effect of an exemplary decoy peptide PM6 (0.3 mg/kg; administered 1 hour after MI induction) on TNF-α mRNA expression in mice myocardium was assessed 24 h and 7 days after ischemia induction.
On the other hand, 5 out of 12 untreated mice died, which accounts for a survival rate of 58% after ischemia for the untreated mice.

Data set [3] deals with C57BL mice. Put plainly: Heart infarct size after LAD ligation (MI mice model). How it is done:
as §1, §2
Hearts of mice from tested groups were isolated, and pictures were taken to determine the extent of infarct relative to total area of the left ventricle to thereby determine the extent of cardio-protection by an exemplary decoy peptide. The viable heart sections were put in a 1% solution of 2,3,5-triphenyl tetrazolium chloride (TTC) in phosphate buffer for 10 min at 37° C. TTC stained the viable tissue in red while necrotic tissue remained discolored. Sections were fixed overnight in 4% formaldehyde to enhance the contrast between stained and unstained tissue. The sections were then placed between two cover slips and digitally photographed using a Nikon Coolpix 5000 camera, at a resolution of 1400×960 pixels, and quantified by using ImageJ software. The area of ischemia/infarction (TTC-negative) was presented as a percentage of the entire area of the section.
Myocardial infarction (MI) in animals may be mimicked by a procedure called left anterior descending artery (LAD) ligation, described in Materials and Methods above. A pilot dose response experiment was first conducted. Decoy peptide represented by compound PM6 (0.5, 1.0 and 5.0 mg/kg) or aqueous solution of 40% polyethylene glycol (PEG 600) were administered intravenously (IV) to C57BL mice, 1 hour before LAD ligation. All mice were kept under standard animal facility conditions for 24 hours. The heart infarct size was measured in all three groups.

Where [4] appears, read: 0.3 mg/kg IV 1 hour before LAD ligation.

As to `CCCCCCCCNc1nc(=O)n(Cc2ccccc2)cc1C` [PM6, 1-benzyl-5-methyl-4-(octylamino)pyrimidin-2(1H)-one], in data set [1] (setting [4]), the “serum CK level” value is “significantly reduced; also recorded: significant reduction”. Also, in data set [1] (setting [4]), the “serum LDH level” value is “significantly reduced; also recorded: significant reduction”. Besides, in data set [1] (setting [4]), the serum troponin level entry is given as “significantly reduced; also recorded: significant reduction”. Besides, in data set [1] (0.05, 0.30 and 1.00 mg/kg IV 1 hour before LAD ligation), the “GOT level (liver function)” value was “did not affect”. The same compound yielded a survival rate in data set [2] of 100%. Also, the figures for the heart infarct size entry in data set [3] (0.05 mg/kg IV 1 hour before LAD ligation), in data set [3] (0.30 mg/kg IV 1 hour before LAD ligation) and in data set [3] (1.00 mg/kg IV 1 hour before LAD ligation) were “significantly reduced”, “significantly reduced; also recorded: significantly effective” and “significantly reduced”, respectively. The infarct size result is listed as “significantly reduced” in data set [3] (0.3 mg/kg IV 1 hour after ligation, 7 days) and “significant effect” in data set [3] (pilot, 0.5 mg/kg IV 1 hour before LAD ligation, 24 hours).
